From patent US9265787B2, “Combined inhibition of the vitamin D receptor and DNA replication in the treatment of cancer” (Institute for Cancer Research, priority 2011, dated 2016)

Tests used:
Assay type in all cases: cell-based
BXPC3shVDR cells = assay: Drug survival of BXPC3 cells stably depleted of VDR (rescue experiments)
Panc1:gfpH2B cells = assay: Time-lapse videomicroscopy of cell fates with siRNAs/drugs and gemcitabine
Description: FIGS. 5A-5C show time lapse videomicroscopy tracking the fates of Panc1:gfpH2B cells treated with various combinations of siRNAs and drugs.
White arrows show mitotic cells in Chk1 depleted cells. Other rounded cells are apoptotic.
The fate of Panc1:gfpH2B cells treated with various combinations of siRNA and gemcitabine was tracked with time-lapse videomicroscopy (FIG. 5A). […] Cells were transfected with indicated siRNAs, and synchronized at the G1/S boundary. Time-lapse was started upon release from the G1/S block and continued for the next 48 hours. Select frames from the movies (0, 12, 24 and 48 hours) are shown.
A comparison of cells treated with gemcitabine in the presence and absence of UCN01, an inhibitor of the Chk1 DNA damage response kinase was carried out (FIG. 5A).
The percentage of cell death was quantified (FIG. 5C).
The mechanism of chemosensitization by inhibiting VDR was investigated, and it was determined that this mechanism is different from overriding the DNA damage checkpoint pathway through Chk1 inhibition (FIG. 6A). […] Chk1 was depleted by using siRNAs targeted to the Chk1 transcript from the Dharmacon smartPOOL siRNA library. The siRNAs included the sequence […] (SEQ ID NO:8), […] (SEQ ID NO:9), […] (SEQ ID NO:10), and […] (SEQ ID NO:11).
Loss of VDR promotes apoptosis of gemcitabine-treated cells through a different pathway than that which is used after Chk1 inhibition. […]

BXPC3 cells [1] = assay: CellTiter-Glo viability assay with VDR short hairpin RNA and gemcitabine
Panc1 cells [2] = assay: as above
Panc1 cells [3] = assay: Clonogenic survival after siRNA transfection and 18 h gemcitabine; details: VDR siRNA-transfected Panc 1 cells, gemcitabine 18 hours, colonies after eight days
Experimental: (§1) Clonogenic survival of BXPC3 cells transfected with indicated siRNAs and treated with drug or vehicle. Plk1 siRNA is positive control for killing. […] Panc 1 cells transfected with VDR siRNA are also included.
(§2) Cells were transfected with siRNA, treated with gemcitabine for 18 hours, then seeded. Surviving colonies were quantitated eight days later.

BXPC3 cells [4] = assay: as above; details: VDR siRNA-transfected BXPC3 cells, gemcitabine 18 hours, colonies after eight days
Experimental: as §1, §2

[5] = system: BXPC3 cells stably expressing gfpH2B; assay: Time-lapse microscopy of BXPC3 cells stably expressing gfpH2B (preliminary experiments); details: S phase by FACS
Description: VDR is known to induce transcription of the Cdk inhibitor, p21, and this is one of the reasons used to explain the anti-proliferative activity of vitamin D. As p21 is also activated by DNA damage, it is possible that VDR contributes to the cell cycle checkpoint arrest induced by gemcitabine. This will be directly tested by time-lapse microscopy of synchronized cells after depletion of VDR and treatment with gemcitabine.

Panc1 cells [6] = assay: Effect of the sublethal screening dose of gemcitabine (phospho-H2AX foci, cell cycle arrest); details: sublethal dose (IC20)
Panc1 cells [7] = assay: Immunofluorescence staining for DNA damage response proteins; details: gemcitabine-treated compared to vehicle treated cells
Description: Immunofluorescence staining for DNA damage response proteins, TAO1, 53BP1, and γ-H2AX of gemcitabine treated Panc1 cells transfected with control or VDR siRNA.

BXPC3 cells [8] = assay: Clonogenic assay with VDR antagonist TEI-9647 and gemcitabine
Experimental: Note sensitization at 2 μM of TEI-9647. The average of 3 independent experiments is shown.
(§3) TEI-9647 alone killed cells, consistent with reduced clonogenic survival by VDR siRNA alone. Clonogenic assays were performed using several different doses of the inhibitor compound to compare clonogenic survival to assays described above using VDR siRNAs and shRNAs. The clonogenic assays were performed as described above. The TEI-9647 compound was added prior to gemcitabine addition, consistent with the timing of the siRNA treatments described above. Cells were treated with inhibitor for 48 hours followed by gemcitabine treatment for 48 hours and allowed to form colonies for 10-12 days. Survival was then quantified by staining and destaining of subsequent colonies with crystal violet and reading the resultant destain at wavelength 595 nm.

Panc1 cells [9] = assay: as above; details: data not shown
Experimental: as §3

With `CC(=O)O[C@H]1C(=O)[C@@]2(C)[C@H]([C@H](OC(=O)c3ccccc3)[C@]3(O)C[C@H](OC(=O)[C@H](O)[C@@H](NC(=O)c4ccccc4)c4ccccc4)C(C)=C1C3(C)C)[C@]1(OC(C)=O)CO[C@@H]1C[C@@H]2O` [taxol] the “effect of VDR status on killing by taxol” value (BXPC3shVDR cells; two concentrations of taxol, BXPC3 parental, shVDR and rescued cells) was “did not affect killing”.

With `CN[C@@H]1C[C@H]2O[C@@](C)([C@@H]1OC)n1c3ccccc3c3c4c(c5c6ccccc6n2c5c31)C(=O)N[C@@H]4O` [UCN01] the “fate of gemcitabine-treated cells (mitotic entry, phase of death)” value (Panc1:gfpH2B cells; 48 hour time-lapse after release from G1/S block) was “promoted cells to first enter mitosis (arrows) which then caused cell death” and the “cell number at 48 hour versus 0 hour” value (Panc1:gfpH2B cells; gemcitabine-treated cells with UCN01, phase contrast images) was “reduced cell number”.

With “VDR shRNA: VDR short hairpin RNA (clone ID TRCN000019504), sequence CGAAGUGUUUGGCAAUGAGAU (SEQ ID NO: 7) (listed as Homo sapiens)” the “sensitization to killing by gemcitabine (viability)” value (BXPC3 cells [1]) was “sensitized both cell lines to killing by gemcitabine” and the “sensitization to killing by gemcitabine (viability)” value (Panc1 cells [2]) was “sensitized both cell lines to killing by gemcitabine”.

In the case of `Nc1ccn([C@@H]2O[C@H](CO)[C@@H](O)C2(F)F)c(=O)n1` [gemcitabine, Gemcitabine], the “further reduction of survival by gemcitabine” value (Panc1 cells [3]) is reported as > 85%, the “further reduction of survival by gemcitabine” value (BXPC3 cells [4]) is reported as > 85% and the “duration of arrest in interphase after gemcitabine treatment” value [5] is reported as “up to 48 hours”. The “DNA damage and cell cycle arrest at the screening dose” value (Panc1 cells [6]) was “sufficient to induce DNA damage”, the “phospho-H2AX and 53BP1 staining in nuclei” value (Panc1 cells [7]) was “increased” and the “survival of BXPC3shVDR cells carrying the C288G VDR mutant” value (BXPC3shVDR cells; 50 nM, compared to the same cells rescued by wild type VDR) was “killed”.

For `C=C1C[C@H](C[C@@H](C)[C@H]2CC[C@H]3/C(=C/C=C4/C[C@@H](O)C[C@H](O)C4=C)CCC[C@]23C)OC1=O` [TEI-9647], the “sensitization to gemcitabine (clonogenic survival)” value (BXPC3 cells [8]; TEI-9647 added prior to gemcitabine) was “sensitize both BXPC3 and Panc1 cells to gemcitabine”, the “TEI-9647 concentration at which sensitization is noted” value (BXPC3 cells [8]; with gemcitabine, average of 3 independent experiments) was 2 µM and the “effect of TEI-9647 alone on clonogenic survival” value (BXPC3 cells [8]; without gemcitabine) was “killed cells”. For the same compound, the “sensitization to gemcitabine (clonogenic survival)” value (Panc1 cells [9]) was “sensitize both BXPC3 and Panc1 cells to gemcitabine”.
